Data on four molecules can be found in EP0610377B1, “TRI-SUBSTITUTED TETRAHYDROFURAN ANTIFUNGALS” (SCHERING CORPORATION, priority 1991, dated 1993).

What all share (assay type): in vivo
Assay [1] has as its system Aspergillus flavus. In words: Aspergillus flavus pulmonary infection model in compromised mice, oral treatment.
In assay [2] the test system is Aspergillus flavus. The assay is described as above. As to conditions: for %SURVIVAL / %ANIMALS NEG: 18 days post infection; for %SURVIVAL: compromised CF-1 mice; for %ANIMALS NEG: negative = <10 colonies. The text has this: The in vivo oral antifungal activity of the compounds of Example 23-26 were compared to those of itraconazole, fluconazole and saperconazole in an Aspergillus pulmonary infection model in mice. The procedure of David Loebenberg et al. entitled "Sch 42427, The Active Enantiomer of Antifungal agent Sch 39304: In Vitro and In Vivo Activity" Antimicrobial Agents and Chemotherapy (1992), 36 498-501 was used. The Aspergillus flavus pulmonary model was run in the following manner Male, CF-1 mice weighing 20 grams were compromised with cortisone acetate (100 mg/kg), administered subcutaneously, once daily for 3 days. In addition, to prevent bacterial disease, tetracycline HCL (300 mg/1) was added to the drinking water and given ad libitum. On day 2 of compromising, mice were infected in an inhalation chamber, first described by Piggot and Emmons in 1960 and modified by us. The chamber is a 1 liter pyrex, thick-walled flask with 8 tubular side-arms that extend into the flask. Each side-arm is a pyrex tube of 14 cm length, constricted to a 1 cm opening inside the flask. The bottom of the flask was covered with a malt extract agar medium on which a sporulating culture of A. flavus ATCC 24133 was grown for 13 days at room temperature. The top of the flask was closed with a #10 stopper through which passed a glass tube attached by rubber tubing to a 60 mL syringe. Mice were placed in each of the side arms and pushed to the bottoms so that their nares extended beyond the open end of the tube and over the agar. Cotton plugs were then inserted behind the mice to hold them in place. By pumping the 60 mL syringe twice, air was forced over the culture and produced a cloud of spores. Mice were exposed to the spore cloud for one minute. Within 15-30 minutes after exposure, a number of mice were sacrificed and lung tissue samples homogenized for culture to determine the number of inhaled conidia. Oral treatment began 24 h post-infection with doses of 5 to 250 mg of drug/kg in ethanol; vehicle (115 ml of Emulphor EL-719P, GAF, Wayne, NJ; and 5 ml of 20% w/v lactic acid per liter of water), 10:90 v/v, once daily for 4 days.
The procedure of Example 31 was used to compare the in vivo oral antifungal activity of (±)-5R/S-(cis)-4-[4-[4-[4-[[5-(2,4-difluorophenyl)-5-(1H-1,2,4-triazol-1-ylmethyl) tetrahydrofuran-3-yl]methoxy-phenyl-1-piperazinyl]phenyl]-2,4-dihydro-2[(R/S)-(1-methylpropyl)]-3H-1,2,4-triazol-3-one with (±)-2R/S-(cis)-1-[4-[[2-(2,4-difluorophenyl)-2-(1H-1,2,4-triazol-1-ylmethyl) tetrahydro-4-furanyl]methoxy]phenyl]-4-(1-methylethyl)piperazine of Example 68 of USP 5,039,676 in an Aspergillus pulmonary infection model described in Example 31. […]
The procedures of Examples 31 and 34 were used.

Another assay concerns C. albicans C-43. In words: Candida systemic model in CF1 mice infected IV with C. albicans C-43, oral treatment. As to conditions: for %SURVIVAL: day 4 post-infection; for CFUs (GM): day 4. As for the experimental part:
The compounds of Examples 23-26 and itraconazole, fluconazole, and saperconazole were tested for in vivo oral antifungal activity in a Candida systemic model using CF1 male mice , average weight 20 g, Harlan Sprague Dawley, Inc., Indianapolis, Ind. infected by IV injection into the tail vein of C. albicans C-43 (5 million CFUs). […] Oral efficacy was measured after four (4) days by percent survival and by the number of organisms remaining in the kidneys i.e., the Colony Forming Units (CFUs). The mice were sacrificed and the kidneys of individual mice were homogenized in sterile saline, diluted and spread onto Mycosel agar. Colony counts were determined after 48 hours at 37°C. For calculation of geometric means, mice that died during the experiment were considered to have 10^9 CFUs/kidneys (based on numerous previous experiments).

Another assay has as its system C. albicans C-65. The experiment in a line: Candida systemic model in normal and compromised CF1 mice infected with C. albicans C-65, oral treatment. Particulars: for % S (Percent Survival): day 4 post-infection; for CFUs (GM): day 4, geometric mean of the logarithms of CFU in the kidneys. On the procedure: The compounds of Examples 23-26 and itraconazole, fluconazole, and saperconazole were tested for in vivo oral antifungal activity in a Candida systemic model using CF1 male mice , average weight 20 g, Harlan Sprague Dawley, Inc., Indianapolis, Ind. infected by IV injection into the tail vein of C. albicans C-43 (5 million CFUs). The drugs were dissolved in polyethylene glycol-200 (PEG-200) and tested by orally administering 50, 25 and 10 mpk of each drug 4 hours post infection and once daily for 3 more days. Oral efficacy was measured after four (4) days by percent survival and by the number of organisms remaining in the kidneys i.e., the Colony Forming Units (CFUs). The mice were sacrificed and the kidneys of individual mice were homogenized in sterile saline, diluted and spread onto Mycosel agar. Colony counts were determined after 48 hours at 37°C. For calculation of geometric means, mice that died during the experiment were considered to have 10^9 CFUs/kidneys (based on numerous previous experiments).
The compounds of Examples 23-24 and itraconazole, fluconazole, were tested for in vivo oral antifungal anctivity in a Candida systemic model using normal and compromised CF1 mice infected with C. albicans C-65 (5 million CFUs). The procedure of Example 33 was followed. The drugs were dissolved in polyethylene glycol-200 ("PEG-200) at room temperature and tested by orally administering 100, 50, 25, 10 and 1 mpk of each drug. Oral efficacy was measured by percent survival and by the number of organisms remaining in the kidneys (CFUs) after four days. […] The pharmaceutical composition of the preferred compound of formula IIb of Eample 24 in hydroxypropyl beta cyclodextrin ("HPβCD") having 7.4 hydroxypropyl groups per HPβCD (obtained from Pharmatec, Inc., Alachua, FL 32615) was prepared by admixing the appropriate amount of the compound IIa with a 40% (w/v) solution of HPβCD (4 g of HPβCD per 10 mL of purified water). Gentle heating was used to form a clear solution. For the 10 mpk dose, 12 mg of Ha was added to 6 mL of a 40% w/v solution of HPβCD. For dilutions, sterile water was added to the solution with mixing. The pharmaceutical composition of itraconazole and the Pharmatec HPβCD described above was prepared as follows. Propylene glycol (10 mL) was admixed with 0.95 mL of concentrated HCI at 40°-45°C with stirring. Itraconazole (2.5 g) was added thereto and stirring was continued until homogeneous. The mixture so formed was cooled to 20° to 30°C and admixed with a solution of 60 g of HPβCD in 40 mL of purified water to form a clear solution. The pH was adjusted to a value of 1.9-2.1 with 10N NaOH and sufficient purified water added (with mixing) to a final volume of 100 mL. For dilutions, sterile water was added to the itraconazole - HPβCD.

The mark [3] stands for this setting: 50 mg/kg PO in PEG-200, OD for 4 days, CF-1 mice.
[4] abbreviates: 100 mg/kg PO in PEG-200, OD for 4 days, CF-1 mice.
Setting [5] is: 200 mg/kg PO in PEG-200, OD for 4 days, CF-1 mice.
Setting [6] is: 33 mg/kg PO once a day for 4 days.
[7] abbreviates: 66 mg/kg PO once a day for 4 days.
[8] abbreviates: 100 mg/kg PO once a day for 4 days.

For `CCC(C)n1ncn(-c2ccc(N3CCN(c4ccc(OC[C@@H]5CO[C@@](Cn6cncn6)(c6ccc(F)cc6F)C5)cc4)CC3)cc2)c1=O` (mixture of isomers) [Compound 1 of Table III of Examples 34, (±)-5R/S-(cis)-4-[4-[4-[4-[[5-(2,4-difluorophenyl)-5-(1H-1,2,4-triazol-1-ylmethyl)tetrahydrofuran-3-yl]methoxyphenyl-1-piperazinyl]phenyl]-2,4-dihydro-2[(RS)-(1-methylpropyl)]-3H-1,2,4-triazol-3-one], the “Percent Survival After 11 Days” value is 16.7 in the assay with Aspergillus flavus [1] (setting [3]), 41.7 in the assay on Aspergillus flavus [1] (setting [4]) and 50.0 in the assay on Aspergillus flavus [1] (setting [5]). Moreover, the “PERCENT SURVIVAL AFTER 5 DAYS (5D)” value with Aspergillus flavus [1] (head prints 50 mg/kg (third dose column, c3), in PEG-200 daily for 4 days, CF-1 mice) is given as 50.
Regarding `CC(C)N1CCN(c2ccc(OC[C@@H]3CO[C@@](Cn4cncn4)(c4ccc(F)cc4F)C3)cc2)CC1` (racemic) [Example 68 of US Patent 5,039,676, (±)-2R/S-(cis)-1-[4-[[2-(2,4-difluorophenyl)-2-(1H-1,2,4-triazol-1-ylmethyl)tetrahydro-4-furanyl]methoxy]phenyl]-4-(1-methylethyl)piperazine, reference compound], the “oral activity in the Aspergillus pulmonary mouse model” value in the assay with Aspergillus flavus [2] (PO, result in words (active / inactive)) is “inactive”. Further, the “Percent Survival After 11 Days” value in the assay on Aspergillus flavus [1] (setting [3]), in the assay with Aspergillus flavus [1] (setting [4]) and in the assay with Aspergillus flavus [1] (setting [5]) was 0 in each case.
For `CC[C@H](C)n1ncn(-c2ccc(N3CCN(c4ccc(OC[C@H]5CO[C@](Cn6cncn6)(c6ccc(F)cc6F)C5)cc4)CC3)cc2)c1=O` [Example 25, (+)-[(5S)-cis]-4-[4-[4-[4-[[5-(2,4-Difluorophenyl)-5-(1H-1,2,4-triazol-1-ylmethyl)tetrahydrofuran-3-yl]methoxy]phenyl]-1-piperazinyl]phenyl]-2,4-dihydro-2-[(1S)-(1-methylpropyl)]-3H-1,2,4-triazol-3-one], the “%SURVIVAL” value in the assay on C. albicans C-43 (10 MPK PO in PEG-200, 1 a day x 4 days) amounted to 0%; in the assay on C. albicans C-43 (25 MPK PO in PEG-200, 1 a day x 4 days) it was 0%; with C. albicans C-43 (50 MPK PO in PEG-200, 1 a day x 4 days), 0%; in the assay on Aspergillus flavus [2] (setting [6]) it was 0%; in the assay on Aspergillus flavus [2] (setting [7]), 0%; in the assay on Aspergillus flavus [2] (setting [8]), 10%. The “%SURVIVAL” value in the assay with Aspergillus flavus [1] (33 mg/kg PO [3RX/DAY] for 4 days, 18 days post infection, compromised CF-1 mice) is given as 20%. Also, the “CFUs (GM)” value with C. albicans C-43 (10 MPK PO in PEG-200, geometric mean of the logarithms of CFU remaining in the kidneys (dead mice counted as 10^9)) was determined as 9.00; in the assay with C. albicans C-43 (25 MPK PO in PEG-200, geometric mean of the logarithms of CFU remaining in the kidneys (dead mice counted as 10^9)), 9.00; with C. albicans C-43 (50 MPK PO in PEG-200, geometric mean of the logarithms of CFU remaining in the kidneys (dead mice counted as 10^9)) it was 9.00. In addition, the “%ANIMALS NEG” value in the assay with Aspergillus flavus [2] (setting [6]) turned out to be 0%; in the assay on Aspergillus flavus [2] (setting [7]) it was 0%; with Aspergillus flavus [2] (setting [8]), 0%; with Aspergillus flavus [1] (33 mg/kg PO [3RX/DAY] for 4 days, 18 days post infection, negative = <10 colonies), 10%.
Turning to `OC(Cn1cncn1)(Cn1cncn1)c1ccc(F)cc1F` [Fluconazole, reference compound], the “%SURVIVAL” value amounted to 70% in the assay with C. albicans C-43 (1 MPK PO in ETOH/Mon, 1 a day x 4 days); 90% in the assay with C. albicans C-43 (10 MPK PO in ETOH/Mon, 1 a day x 4 days); 10% with Aspergillus flavus [2] (setting [8]). In addition, the “CFUs (GM)” value with C. albicans C-43 (1 MPK PO in ETOH/Mon, geometric mean of the logarithms of CFU remaining in the kidneys) is listed as 6.58; with C. albicans C-43 (10 MPK PO in ETOH/Mon, geometric mean of the logarithms of CFU remaining in the kidneys), 5.68; with C. albicans C-65 (600 Rads Mice (compromised), 10 MPK PO in PEG-200), 8.01; with C. albicans C-65 (600 Rads Mice (compromised), 25 MPK PO in PEG-200) it was 6.91; with C. albicans C-65 (Normal Mice, 1 MPK PO in PEG-200) it was 5.81; in the assay with C. albicans C-65 (Normal Mice, 10 MPK PO in PEG-200), 5.35. In addition, the “% S (Percent Survival)” value with C. albicans C-65 (600 Rads Mice (compromised), 10 MPK PO in PEG-200, 1/day x 4 days) is recorded as 20%; in the assay with C. albicans C-65 (600 Rads Mice (compromised), 25 MPK PO in PEG-200, 1/day x 4 days), 50%; in the assay on C. albicans C-65 (Normal Mice, 1 MPK PO in PEG-200, 1/day x 4 days), 60%; in the assay on C. albicans C-65 (Normal Mice, 10 MPK PO in PEG-200, 1/day x 4 days), 80%. Moreover, the “%ANIMALS NEG” value in the assay with Aspergillus flavus [2] (setting [8]) is 0%.
